Reference: ChEMBL document CHEMBL1132365, “A multisubstrate adduct inhibitor of AICAR transformylase” (J Med Chem, 1999)

Columns and labels:
[1] = target: T1, Bifunctional purine biosynthesis protein ATIC (Homo sapiens, UniProt P31939); test: Binding affinity towards AICAR formyltransferase
[2] = target: T1, Bifunctional purine biosynthesis protein ATIC; test: Inhibitory activity against AICAR formyltransferase
[3] = target: AICAR transformylase (Lactobacillus casei); test: Inhibitory activity against AICAR formyltransferase

T1 sequence (P31939 whole entry): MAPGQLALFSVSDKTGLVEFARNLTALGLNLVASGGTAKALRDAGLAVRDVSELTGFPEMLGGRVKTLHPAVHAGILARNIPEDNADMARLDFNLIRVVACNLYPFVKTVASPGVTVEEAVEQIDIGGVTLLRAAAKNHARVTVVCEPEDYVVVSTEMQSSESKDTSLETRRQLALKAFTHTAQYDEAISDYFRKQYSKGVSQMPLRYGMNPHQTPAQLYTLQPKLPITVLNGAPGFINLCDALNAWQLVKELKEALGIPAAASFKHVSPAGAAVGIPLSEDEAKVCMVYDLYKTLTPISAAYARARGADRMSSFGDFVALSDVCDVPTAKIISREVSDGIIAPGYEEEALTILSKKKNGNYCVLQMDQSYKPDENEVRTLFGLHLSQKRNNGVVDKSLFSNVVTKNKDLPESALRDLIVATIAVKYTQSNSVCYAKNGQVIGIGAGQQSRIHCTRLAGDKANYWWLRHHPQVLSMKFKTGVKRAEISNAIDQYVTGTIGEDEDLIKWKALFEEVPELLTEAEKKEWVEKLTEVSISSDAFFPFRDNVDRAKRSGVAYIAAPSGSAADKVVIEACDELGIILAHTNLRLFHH

`NC(=O)c1ncn(C2O[C@H](COP(=O)(O)O)[C@@H](O)[C@H]2O)c1/C=C/C(=O)N(CC1=NC2C(=O)NC(N)=NC2C=C1)c1ccc(C(=O)N[C@@H](CCC(=O)O)C(=O)O)cc1` (stereo partly drawn) was tested, and the Kd [1] was 20 nM and the IC50 [2] was 125 nM.
`Nc1nc(=O)c2nc(CN(C=O)c3ccc(C(=O)N[C@H](CCC(=O)O)C(=O)O)cc3)ccc2[nH]1` gave an IC50 [3] of 6400 nM.
